Common to all, as to format: cell-based
The test system of experiment [1] is mantle cell lymphoma (Granta-519, Mino, and Jeko-1). The experiment in a line: Cell viability (cytotoxicity) assay, mantle cell lymphoma cells. Particulars: Homo sapiens; 48 hours, CCK8 or Alamar Blue; curves of Fig. 1f-j; read-out: Half maximal inhibitory concentration (IC50) in cell line cytotoxicity assays, Mantle Cell Lymphoma. (In general: The colour change of resazurin is a common sign of viable cells or microbes.)

For experiment [2], the system named is Hepatocellular carcinoma cells (Hep3B, HepG2, and Huh7). The experiment in a line: Cell viability (cytotoxicity) assay, hepatocellular carcinoma cells. Particulars: Homo sapiens; 48 hours, CCK8 or Alamar Blue; curves of Fig. 1f-j; read-out: Half maximal inhibitory concentration (IC50) in cell line cytotoxicity assays, Hepatocellular Carcinoma.
Experiment [3] deals with neuroblastoma cells (CHLA-255, CHLA-136, and SMS-KNCR). As to the kind of experiment: Cell viability (cytotoxicity) assay, neuroblastoma cells. Particulars: Homo sapiens, 48 hours, CCK8 or Alamar Blue, curves of Fig. 1f-j, read-out: Half maximal inhibitory concentration (IC50) in cell line cytotoxicity assays, Neuroblastoma.

For `CC(=O)c1c(C)c2cnc(Nc3ccc(N4CCNCC4)cn3)nc2n(C2CCCC2)c1=O` [Palbociclib, reference compound], the IC50 is 8.4 µM in experiment [1], 11.9 µM in experiment [2] and 9.2 µM in experiment [3].

Source of the values: PMC7385619, “A triple action CDK4/6-PI3K-BET inhibitor with augmented cancer cell cytotoxicity” (Cell Discovery, 2020).
